{"source": "patent US7834248B2", "about": "“Plant seed comprising vernolic acid” (Commonwealth Scientific and Industrial Research Organisation, priority 1997, dated 2010)", "key": {"[1]": {"system": "C. alpina oleate Δ12-desaturase", "experiment": "Microsomal oleate Δ12-desaturase assay, effect of treatments", "type": "biochemical, Crepis alpina", "conditions": "for Enzyme Activity (% of control), C. alpina oleate Δ12-desaturase: microsomal membranes, control = minus NADPH plus NADH", "experimental": "(§1) Preparations of membranes from Crepis alpina and Crepis palaestina were obtained as follows. Crepis alpina and Crepis palaestina plants were grown in green houses and seeds were harvested at the mid-stage of development (17-20 days after flowering). Cotyledons were squeezed out from their seed coats and homogenized with mortar and pestle in 0.1M phosphate buffer, pH 7.2 containing 0.33M sucrose, 4 mM NADH, 2 mM CoASH, 1 mg of bovine serum albumin/ml and 4,000 units of catalase/ml. The homogenate was centrifuged for 10 min at 18,000×g and the resulting supernatant centrifuged for 60 min at 150,000×g to obtain a microsome pellet.\n(§2) […]. When NADPH was used as coreductant, the membranes were resuspended in homogenization buffer comprising NADPH in place of NADH.\n(§3) Biochemical characterization of the microsomal linoleate Δ12-epoxygenase derived from Euphorbia lagascae and Crepis palaestina was carried out and data obtained were compared to the biochemical characteristics of oleate Δ12-desaturase and linoleate Δ12-acetylenase enzymes derived from microsomal preparations of Crepis alpina (Table 4)."}, "[2]": {"system": "C. palaestina linoleate Δ12-epoxygenase", "experiment": "Microsomal linoleate Δ12-epoxygenase assay, effect of treatments", "type": "biochemical, Crepis palaestina", "conditions": "microsomal membranes; control = minus NADPH plus NADH", "experimental": "as §1, §2, §3"}, "[3]": {"system": "E. lagascae linoleate Δ12-epoxygenase", "experiment": "Membrane linoleate Δ12-epoxygenase assay, effect of treatments", "type": "biochemical, Euphorbia lagascae", "conditions": "for Enzyme Activity (% of control), E. lagascae linoleate Δ12-epoxygenase: membranes, control = minus NADH plus NADPH", "experimental": "Preparations of membranes from Euphorbia lagascae and assays of their epoxygenase activities were performed as described by Bafor et al. (1993) with incubations containing NADPH, unless otherwise indicated in Table 4. Lipid extraction, separation and methylation as well as GLC and radio-GLC separations were performed essentially as described by Kohn et al. (1994) and Bafor et al. (1993).\nas §3"}, "[4]": {"biological_target": "T1, C. alpina linoleate Δ12-acetylenase (Crepis alpina, UniProt O81931)", "T1 construct": "from tissue; host or cells: microsomes from cotyledons of developing Crepis alpina seeds", "T1 sequence (O81931 whole entry, stated change not applied)": "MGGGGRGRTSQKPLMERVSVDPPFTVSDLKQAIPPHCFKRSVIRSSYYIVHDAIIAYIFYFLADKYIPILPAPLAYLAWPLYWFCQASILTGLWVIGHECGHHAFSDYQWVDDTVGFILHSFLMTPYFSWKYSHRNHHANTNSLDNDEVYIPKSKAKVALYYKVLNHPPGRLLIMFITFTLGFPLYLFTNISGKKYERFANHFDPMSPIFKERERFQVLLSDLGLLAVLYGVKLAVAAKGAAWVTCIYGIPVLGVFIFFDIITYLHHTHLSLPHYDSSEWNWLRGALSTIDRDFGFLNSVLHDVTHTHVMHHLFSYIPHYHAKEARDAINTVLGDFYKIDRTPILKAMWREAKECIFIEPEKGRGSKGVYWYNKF", "experiment": "Microsomal linoleate Δ12-acetylenase assay, effect of treatments", "type": "biochemical", "experimental": "as §1, §2, §3"}, "[5]": {"system": "developing linseed cotyledons", "experiment": "Incorporation of 14C-labelled oleic acid and vernolic acid into the lipids of developing linseed cotyledons", "experimental": "0.1 M phosphate buffer pH 7.2 for 90 or 270 min before extraction. An aliquot of the lipids in the chloroform phase was methylated and separated on silica gel TLC plates in n-hexane/diethylether/acetic acid (85:15:1). The rest of the lipids in the chloroform phase of each sample were applied on two separate silica gel TLC plates and the plates were developed in chloroform/methanol/acetic acid/water (85:15:10:3.5 by vol) for polar lipids separation and in n-hexane/diethylether/acetic acid (60:40:1.5) for neutral lipid separation. Lipid areas with migration corresponding to authentic standards were removed and radioactivity in each lipid were quantified by liquid scintillation counting."}}, "data": [{"smiles": "[C-]#[O+]", "note": "[Carbon monoxide]", "values": [{"measurement": "Inhibition of oleate Δ12-desaturase (in words)", "setting": "[1]; Crepis alpina microsomes", "value": "not by carbon monoxide"}, {"measurement": "Enzyme Activity (% of control), C. alpina oleate Δ12-desaturase", "setting": "[1]", "value": "85 % of control"}, {"measurement": "Enzyme Activity (% of control), C. palaestina linoleate Δ12-epoxygenase", "setting": "[2]", "value": "88 % of control"}, {"measurement": "Inhibition of linoleate Δ12-epoxygenase (in words)", "setting": "[3]; Euphorbia lagascae membranes", "value": "is inhibited"}, {"measurement": "Enzyme Activity (% of control), E. lagascae linoleate Δ12-epoxygenase", "setting": "[3]", "value": "3 % of control"}, {"measurement": "Inhibition of linoleate Δ12-acetylenase (in words)", "setting": "[4]; Crepis alpina microsomes", "value": "not by carbon monoxide"}]}, {"smiles": "NC(=O)C1=CN([C@@H]2O[C@H](COP(=O)(O)OP(=O)(O)OC[C@H]3O[C@@H](n4cnc5c(N)ncnc54)[C@H](OP(=O)(O)O)[C@@H]3O)[C@@H](O)[C@H]2O)C=CC1", "note": "[NADPH]", "values": [{"measurement": "Enzyme Activity (% of control), C. alpina oleate Δ12-desaturase", "setting": "[1]", "value": "95 % of control"}, {"measurement": "Enzyme Activity (% of control), C. palaestina linoleate Δ12-epoxygenase", "setting": "[2]", "value": "94 % of control"}, {"measurement": "Enzyme Activity (% of control), C. alpina linoleate Δ12-acetylenase", "setting": "[4]; microsomal membranes, control = minus NADPH plus NADH", "value": "73 % of control"}]}, {"smiles": "NC(=O)C1=CN([C@@H]2O[C@H](COP(=O)(O)OP(=O)(O)OC[C@H]3O[C@@H](n4cnc5c(N)ncnc54)[C@H](O)[C@@H]3O)[C@@H](O)[C@H]2O)C=CC1", "note": "[NADH]", "values": [{"measurement": "Enzyme Activity (% of control), E. lagascae linoleate Δ12-epoxygenase", "setting": "[3]", "value": "11 % of control"}]}, {"smiles": "CCCCCCCC/C=C\\CCCCCCCC(=O)O", "note": "[[^14C]oleic acid, oleic acid]", "values": [{"measurement": "Activity of chloroform phase residing in phosphatidylcholine", "setting": "[5]; after 30 min", "value": "About 22%"}, {"measurement": "Activity of chloroform phase residing in triacylglycerols", "setting": "[5]; after 30 min", "value": "About 5%"}, {"measurement": "Added radioactivity taken up by the cotyledons and recovered as lipophilic substances (chloroform phase)", "setting": "[5]; after the 30 min pulse labeling, virtually unchanged during further 270 min", "value": "Somewhat more than half"}, {"measurement": "Activity of chloroform phase residing in phosphatidylcholine", "setting": "[5]; at 300 min of incubation", "value": "about 11%"}, {"measurement": "Activity of chloroform phase residing in triacylglycerols", "setting": "[5]; at 300 min of incubation", "value": 18, "unit": "%"}, {"measurement": "Activity contained in diacylglycerols", "setting": "[5]; remained rather constant over the incubation periods", "value": "~19", "unit": "%"}]}, {"smiles": "CCCCCC1OC1CC=CCCCCCCCC(=O)O", "note": "(centres unmarked) [[^14C]vernolic acid, 12,13-epoxy-9-octadecenoic acid]", "values": [{"measurement": "Metabolism of the epoxy group by linseed cotyledons (in words)", "setting": "[5]", "value": "do not metabolize the epoxy group of vernolic acid to any great extent"}]}]}
